Laboratory results from US20260234157A1, “COMPOUND AND METHOD FOR TARGETED DEGRADATION OF ANDROGEN RECEPTOR” (Gan & Lee Pharmaceuticals Co., Ltd., priority 2023, published 2026).
Where a chain is given by its changes, count along the chain named. Where two headings read alike, the source gives them in different places.

Experiments:
Type in all cases: cell-based
AR protein [1] = target: T1, AR protein (Homo sapiens, UniProt P10275, T878A); assay: Degradation of AR protein in LNCaP cells (Western blot); conditions: for inhibition at 0.01 µM: read-out: Degradation rates of the AR protein in LNCaP cells, 10 nM (%); for inhibition at 0.1 µM: read-out: Degradation rates of the AR protein in LNCaP cells, 100 nM (%)
T1 construct: degradation activity of the compounds disclosed in the present disclosure on AR protein in LNCaP cells; host or cells: LNCaP FGC
T1 sequence (P10275 1-920 T878A): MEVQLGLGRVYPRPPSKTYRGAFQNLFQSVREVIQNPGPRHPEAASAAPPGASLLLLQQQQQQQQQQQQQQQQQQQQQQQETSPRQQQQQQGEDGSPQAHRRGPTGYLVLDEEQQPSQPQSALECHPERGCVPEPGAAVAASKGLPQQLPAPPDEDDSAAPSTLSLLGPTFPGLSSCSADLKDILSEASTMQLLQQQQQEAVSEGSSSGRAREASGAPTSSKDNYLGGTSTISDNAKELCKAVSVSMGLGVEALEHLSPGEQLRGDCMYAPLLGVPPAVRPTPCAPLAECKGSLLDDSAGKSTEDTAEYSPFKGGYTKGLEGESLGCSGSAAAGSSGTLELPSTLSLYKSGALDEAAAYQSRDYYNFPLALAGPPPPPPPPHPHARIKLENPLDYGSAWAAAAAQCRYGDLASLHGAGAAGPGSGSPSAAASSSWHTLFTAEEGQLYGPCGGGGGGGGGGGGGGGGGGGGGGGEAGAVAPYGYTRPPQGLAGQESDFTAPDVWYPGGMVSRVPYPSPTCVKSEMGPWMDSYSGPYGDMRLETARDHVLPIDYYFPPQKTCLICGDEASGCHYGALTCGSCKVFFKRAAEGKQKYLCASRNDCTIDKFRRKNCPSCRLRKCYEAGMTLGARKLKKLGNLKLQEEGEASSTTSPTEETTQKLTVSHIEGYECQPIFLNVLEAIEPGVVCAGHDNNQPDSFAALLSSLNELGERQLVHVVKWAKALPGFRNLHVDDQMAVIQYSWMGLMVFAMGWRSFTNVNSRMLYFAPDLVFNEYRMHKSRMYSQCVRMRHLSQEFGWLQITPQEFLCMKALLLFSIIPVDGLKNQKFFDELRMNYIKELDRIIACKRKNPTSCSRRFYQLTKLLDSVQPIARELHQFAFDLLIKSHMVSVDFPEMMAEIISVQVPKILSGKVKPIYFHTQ
Summary of the method: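 Percent AR degradation was derived from GAPDH-normalised Western blot band intensities (infrared detection) in LNCaP lysates.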

AR protein [2] = target: T2, AR protein (Homo sapiens, UniProt P10275); assay: Degradation of AR protein in VCaP cells (Western blot); conditions: 8 hours; for inhibition at 0.01 µM: compound at 10 nM, read-out: Degradation rate of the AR protein in VCaP cells, 10 nM (%); for inhibition at 0.1 µM: compound at 100 nM, read-out: Degradation rate of the AR protein in VCaP cells, 100 nM (%)
T2 construct: degradation activity of the compounds disclosed in the present disclosure on AR protein in VCaP cells; host or cells: VCaP
T2 sequence (P10275 1-920): T1 sequence (P10275 1-920 T878A) with A878T
Summary of the method: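 Western blot readout: AR band grayscale normalised to GAPDH, used to derive degradation rate. Lysates came from VCaP cells exposed to compound for 8 h, with solvent controls run in parallel.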

LNCaP FGC cells = assay: Inhibition of proliferation of LNCaP cells (WST-8); conditions: Homo sapiens, LNCaP, 96 h
Protocol: The cells were cultured in a cell culture incubator with 5% CO2 at 37° C. overnight. […] On the sixth day, 96 well plates were taken out, and 20 μL of WST-8 (Beytime, C0040) reagent was added to each well.

VCaP cells = assay: Inhibition of proliferation of VCaP cells (WST-8); conditions: Homo sapiens, read-out: IC50 for inhibiting the proliferation of VCaP cells
Summary of the method: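 Proliferation was read by WST-8 on day nine. Cells were VCaP FGC, seeded at 15000 cells per well in 10% FBS DMEM and kept at 37° C with 5% CO2.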

[3] = LNCaP cells, compound 10 nM, 8 hours, Western blot grayscale, GAPDH internal reference
[4] = LNCaP cells, compound 100 nM, 8 hours, Western blot grayscale, GAPDH internal reference
[5] = LNCaP FGC cells, 96 hours, WST-8 absorbance at 450 nm, read-out: IC50 for inhibiting the proliferation of LNCaP cells
[6] = VCaP cells, 168 hours, WST-8 absorbance at 450 nm
[7] = read-out: IC50 for inhibiting the proliferation of LNCaP cells, LNCaP FGC cells, 96 hours, WST-8 absorbance at 450 nm

| SMILES | inhibition at 0.01 µM (AR protein [1]; [3]) | inhibition at 0.1 µM (AR protein [1]; [4]) | inhibition at 0.01 µM (AR protein [2]) | inhibition at 0.1 µM (AR protein [2]) | IC50 (LNCaP FGC cells; [5]) | IC50 (VCaP cells; [6]) | inhibition at 0.01 µM (AR protein [1]; LNCaP, 8 h) | inhibition at 0.1 µM (AR protein [1]; LNCaP, 8 h) | IC50 (LNCaP FGC cells; [7]) | IC50 (VCaP cells; VCaP, 168 h) | IC50 (LNCaP FGC cells; read-out: IC50 for inhibiting the proliferation of LNCaP cells) |
| --- | --- | --- | --- | --- | --- | --- | --- | --- | --- | --- | --- |
| N#Cc1ccc(O[C@H]2CC[C@H](NC(=O)c3ccc(N4CCC5(CCC(N6CCC7(CC6)COc6cc8c(cc6C7)C(=O)N(C6CCC(=O)NC6=O)C8=O)CC5)C4)nn3)CC2)cc1Cl (stereo partly drawn) [Compound 62] | 46% | 76% | 66% | 74% | 820 nM | 520 nM | – | – | – | – | – |
| COc1cc(O[C@H]2C(C)(C)[C@H](NC(=O)c3ccc(N4CCC(C)(CN5CCC6(CC5)COc5c6ccc6c5CN(C5CCC(=O)NC5=O)C6=O)CC4)cc3)C2(C)C)ccc1C#N (stereo partly drawn) [Compound 221] | 24% | 76% | 16% | 64% | 46 nM | 1.5 nM | – | – | – | – | – |
| COc1cc(O[C@H]2C(C)(C)[C@H](NC(=O)c3ccc(N4CCC(F)(CN5CCC6(CC5)COc5cc7c(cc56)C(=O)N(C5CCC(=O)NC5=O)C7=O)CC4)cc3)C2(C)C)ccc1C#N (stereo partly drawn) [Compound 273] | 2% | 26% | -20% | 7% | 96400 nM | 970 nM | – | – | – | – | – |
| COc1cc(O[C@H]2C(C)(C)[C@H](NC(=O)c3ccc(N4CCC(C)(CN5CCC6(CCc7cc8c(cc7O6)C(=O)N(C6CCC(=O)NC6=O)C8=O)CC5)CC4)cc3)C2(C)C)ccc1C#N (stereo partly drawn) [Compound 287] | 28% | 51% | -31% | 13% | 70500 nM | 310 nM | – | – | – | – | – |
| CCC1(CN2CCC3(CC2)COc2c3ccc3c2CN(C2CCC(=O)NC2=O)C3=O)CCN(c2ccc(C(=O)N[C@H]3CC[C@H](Oc4ccc(C#N)c(Cl)c4)CC3)nn2)CC1 (stereo partly drawn) [Compound 236] | 44% | 60% | 37% | 82% | 22 nM | 1 nM | – | – | – | – | – |
| N#Cc1ccc(O[C@H]2CC[C@H](NC(=O)c3ccc(N4CCC(CC(=O)N5CCC6(CC5)COc5c6ccc6c5CN(C5CCC(=O)NC5=O)C6=O)CC4)nn3)CC2)cc1Cl (stereo partly drawn) [Compound 192] | 37% | 35% | 66% | 86% | 2590 nM | 3 nM | – | – | – | – | – |
| COc1cc(O[C@H]2CC[C@H](NC(=O)c3ccc(N4CCC(CN5CCC6(CC5)COc5c6ccc6c5C(=O)N(C5CCC(=O)NC5=O)C6=O)(OC)CC4)nn3)CC2)ccc1C#N (stereo partly drawn) [Compound 272] | 45% | 52% | 38% | 75% | 100 nM | 63 nM | – | – | – | – | – |
| COc1cc(O[C@H]2CC[C@H](NC(=O)c3ccc(N4CCC(CN5CCC6(CC5)COc5c6ccc6c5C(=O)N(C5CCC(=O)NC5=O)C6=O)(OC)CC4)cc3)CC2)ccc1C#N (stereo partly drawn) [Compound 219] | – | – | 11% | 70% | – | – | -40% | 21% | 260 nM | 60 nM | – |
| N#Cc1ccc(O[C@H]2CC[C@H](NC(=O)c3ccc(N4CC(N5CCC6(CCc7cc8c(cc7O6)C(=O)N(C6CCC(=O)NC6=O)C8=O)CC5)C4)nn3)CC2)cc1Cl (stereo partly drawn) [Compound 25] | – | – | 13% | 32% | – | – | 49% | 43% | 390 nM | 910 nM | – |
| N#Cc1ccc(O[C@H]2CC[C@H](NC(=O)c3ccc(N4CCC(CC5CC5)(CN5CCC6(CC5)COc5c6ccc6c5CN(C5CCC(=O)NC5=O)C6=O)CC4)nn3)CC2)cc1Cl (stereo partly drawn) [Compound 211] | 45% | 28% | -4% | 46% | – | – | – | – | – | 2.5 nM | 55 nM |

Continued, in another order:

| inhibition at 0.01 µM (AR protein [1]; [3]) | inhibition at 0.1 µM (AR protein [1]; [4]) | inhibition at 0.01 µM (AR protein [2]) | inhibition at 0.1 µM (AR protein [2]) | IC50 (LNCaP FGC cells; [5]) | IC50 (VCaP cells; [6]) | SMILES | inhibition at 0.01 µM (AR protein [1]; LNCaP, 8 h) | inhibition at 0.1 µM (AR protein [1]; LNCaP, 8 h) | IC50 (LNCaP FGC cells; [7]) | IC50 (VCaP cells; VCaP, 168 h) | IC50 (LNCaP FGC cells; read-out: IC50 for inhibiting the proliferation of LNCaP cells) |
| --- | --- | --- | --- | --- | --- | --- | --- | --- | --- | --- | --- |
| 81% | 92% | 75% | 85% | 50 nM | 100 nM | N#Cc1ccc(O[C@H]2CC[C@H](NC(=O)c3ccc(N4CCC(CN5CCC6(CC5)COc5cc7c(cc5C6)C(=O)N(C5CCC(=O)NC5=O)C7=O)CC4)nn3)CC2)cc1Cl (stereo partly drawn) [Compound 72] | – | – | – | – | – |
| 36% | 75% | 50% | 71% | 500 nM | 100 nM | N#Cc1ccc(O[C@H]2CC[C@H](NC(=O)c3ccc(N4CC5(CCC(N6CCC7(CC6)COc6cc8c(cc6C7)C(=O)N(C6CCC(=O)NC6=O)C8=O)CC5)C4)nn3)CC2)cc1Cl (stereo partly drawn) [Compound 65] | – | – | – | – | – |
| 43% | 22% | 16% | 26% | 4500 nM | 6800 nM | N#Cc1ccc(O[C@H]2CC[C@H](NC(=O)c3ccc(N4CCC5(CC4)COc4cc6c(cc45)C(=O)N(C4CCC(=O)NC4=O)C6=O)nn3)CC2)cc1Cl (stereo partly drawn) [Compound 52] | – | – | – | – | – |
| 58% | 60% | 9% | 35% | 3900 nM | 6200 nM | N#Cc1ccc(O[C@H]2CC[C@H](NC(=O)c3ccc(N4CCC5(CCc6cc7c(cc6O5)C(=O)N(C5CCC(=O)NC5=O)C7=O)CC4)nn3)CC2)cc1Cl (stereo partly drawn) [Compound 28] | – | – | – | – | – |
| 0% | 65% | 67% | 81% | 500 nM | 240 nM | N#Cc1ccc(O[C@H]2CC[C@H](NC(=O)c3ccc(N4CCC5(CC(N6CCC7(CC6)COc6cc8c(cc6C7)C(=O)N(C6CCC(=O)NC6=O)C8=O)C5)C4)nn3)CC2)cc1Cl (stereo partly drawn) [Compound 63] | – | – | – | – | – |
